{"source": "ChEMBL document CHEMBL3885881", "about": "“DrugMatrix”", "species_on_record": "Rattus norvegicus", "experiment": "DrugMatrix - Regimen: Daily Repeat", "type": "toxicity, organism-based, Sprague-Dawley", "set-up": "regimen Daily Repeat, gender Male, age 6-8 weeks", "conditions": "in vivo, iv, vehicle 100 % SALINE", "key": {"[1]": {"conditions": "0 mg/kg, 120 h, tissue Plasma, dose level Control, time 5 day"}, "[2]": {"conditions": "2 mg/kg, 72 h, tissue Blood, dose level High, time 3 day"}, "[3]": {"conditions": "2 mg/kg, 72 h, tissue Plasma, dose level High, time 3 day"}, "[4]": {"conditions": "2 mg/kg, 120 h, tissue Blood, dose level High, time 5 day"}, "[5]": {"conditions": "2 mg/kg, 120 h, tissue Plasma, dose level High, time 5 day"}}}
{"sequence": "CISPLATIN", "values": [{"measurement": "CHLORIDE", "setting": "[1]", "result": 100.33, "unit": "MEQ/L"}, {"measurement": "CHOLESTEROL", "setting": "[1]", "result": 69.33, "unit": "mg/dL"}, {"measurement": "CREATININE", "setting": "[1]", "result": 0.22, "unit": "mg/dL"}, {"measurement": "GLUCOSE", "setting": "[1]", "result": 155.17, "unit": "mg/dL"}, {"measurement": "PHOSPHORUS", "setting": "[1]", "result": 11.2, "unit": "mg/dL"}, {"measurement": "POTASSIUM", "setting": "[1]", "result": 5.5, "unit": "MEQ/L"}, {"measurement": "TOTAL BILIRUBIN", "setting": "[1]", "result": 0.18, "unit": "mg/dL"}, {"measurement": "URIC ACID", "setting": "[1]", "result": 0.88, "unit": "mg/dL"}, {"measurement": "ABSOLUTE BASOPHIL", "setting": "[2]", "result": 0, "unit": "CELLS/uL"}, {"measurement": "ABSOLUTE EOSINOPHIL", "setting": "[2]", "result": 0, "unit": "CELLS/uL"}, {"measurement": "ABSOLUTE LYMPHOCYTE", "setting": "[2]", "result": 6398.67, "unit": "CELLS/uL"}, {"measurement": "ABSOLUTE MONOCYTE", "setting": "[2]", "result": 72, "unit": "CELLS/uL"}, {"measurement": "BASOPHIL", "setting": "[2]", "result": 0, "unit": "%"}, {"measurement": "EOSINOPHIL", "setting": "[2]", "result": 0, "unit": "%"}, {"measurement": "ERYTHROCYTE COUNT", "setting": "[2]", "result": 5.34, "unit": "x10E6/uL"}, {"measurement": "HEMATOCRIT", "setting": "[2]", "result": 33.2, "unit": "%"}, {"measurement": "HEMOGLOBIN", "setting": "[2]", "result": 13.07, "unit": "G/DL"}, {"measurement": "LEUKOCYTE COUNT", "setting": "[2]", "result": 6.77, "unit": "x10E3/uL"}, {"measurement": "LYMPHOCYTE", "setting": "[2]", "result": 94.67, "unit": "%"}, {"measurement": "MONOCYTE", "setting": "[2]", "result": 1, "unit": "%"}, {"measurement": "NEUTROPHIL", "setting": "[2]", "result": 4.33, "unit": "%"}, {"measurement": "NUCLEATED RED BLOOD CELLS", "setting": "[2]", "result": "0 /100WBC"}, {"measurement": "PLATELET COUNT", "setting": "[2]", "result": 1193.33, "unit": "x10E3/uL"}, {"measurement": "ALANINE AMINOTRANSFERASE", "setting": "[3]", "result": 59.33, "unit": "u/L"}, {"measurement": "ALKALINE PHOSPHATASE", "setting": "[3]", "result": 321.33, "unit": "u/L"}, {"measurement": "ASPARTATE AMINOTRANSFERASE", "setting": "[3]", "result": 83.33, "unit": "u/L"}, {"measurement": "BLOOD UREA NITROGEN", "setting": "[3]", "result": 45.67, "unit": "mg/dL"}, {"measurement": "CARBON DIOXIDE", "setting": "[3]", "result": 28, "unit": "mmol/L"}, {"measurement": "CHLORIDE", "setting": "[3]", "result": 98.67, "unit": "MEQ/L"}, {"measurement": "CHOLESTEROL", "setting": "[3]", "result": 63.33, "unit": "mg/dL"}, {"measurement": "CREATININE", "setting": "[3]", "result": 0.81, "unit": "mg/dL"}, {"measurement": "GLUCOSE", "setting": "[3]", "result": 165.67, "unit": "mg/dL"}, {"measurement": "LACTATE DEHYDROGENASE", "setting": "[3]", "result": 157, "unit": "u/L"}, {"measurement": "LIPASE", "setting": "[3]", "result": 8.33, "unit": "u/L"}, {"measurement": "PHOSPHORUS", "setting": "[3]", "result": 9.77, "unit": "mg/dL"}, {"measurement": "POTASSIUM", "setting": "[3]", "result": 5.3, "unit": "MEQ/L"}, {"measurement": "TOTAL BILIRUBIN", "setting": "[3]", "result": 0.3, "unit": "mg/dL"}, {"measurement": "URIC ACID", "setting": "[3]", "result": 0.97, "unit": "mg/dL"}, {"measurement": "ABSOLUTE BASOPHIL", "setting": "[4]", "result": 0, "unit": "CELLS/uL"}, {"measurement": "ABSOLUTE EOSINOPHIL", "setting": "[4]", "result": 0, "unit": "CELLS/uL"}, {"measurement": "ABSOLUTE LYMPHOCYTE", "setting": "[4]", "result": 6841, "unit": "CELLS/uL"}, {"measurement": "ABSOLUTE MONOCYTE", "setting": "[4]", "result": 28.67, "unit": "CELLS/uL"}, {"measurement": "BASOPHIL", "setting": "[4]", "result": 0, "unit": "%"}, {"measurement": "EOSINOPHIL", "setting": "[4]", "result": 0, "unit": "%"}, {"measurement": "ERYTHROCYTE COUNT", "setting": "[4]", "result": 5.89, "unit": "x10E6/uL"}, {"measurement": "HEMOGLOBIN", "setting": "[4]", "result": 14.03, "unit": "G/DL"}, {"measurement": "LEUKOCYTE COUNT", "setting": "[4]", "result": 7.07, "unit": "x10E3/uL"}, {"measurement": "LYMPHOCYTE", "setting": "[4]", "result": 97, "unit": "%"}, {"measurement": "MEAN CORPUSCULAR HEMOGLOBIN", "setting": "[4]", "result": 23.87, "unit": "pg"}, {"measurement": "MEAN CORPUSCULAR HEMOGLOBIN CONCENTRATION", "setting": "[4]", "result": 39.17, "unit": "G/DL"}, {"measurement": "MONOCYTE", "setting": "[4]", "result": 0.33, "unit": "%"}, {"measurement": "NEUTROPHIL", "setting": "[4]", "result": 2.67, "unit": "%"}, {"measurement": "NUCLEATED RED BLOOD CELLS", "setting": "[4]", "result": "0 /100WBC"}, {"measurement": "PLATELET COUNT", "setting": "[4]", "result": 1329.67, "unit": "x10E3/uL"}, {"measurement": "ALANINE AMINOTRANSFERASE", "setting": "[5]", "result": 52, "unit": "u/L"}, {"measurement": "ALKALINE PHOSPHATASE", "setting": "[5]", "result": 249, "unit": "u/L"}, {"measurement": "ASPARTATE AMINOTRANSFERASE", "setting": "[5]", "result": 79.33, "unit": "u/L"}, {"measurement": "BLOOD UREA NITROGEN", "setting": "[5]", "result": 37.67, "unit": "mg/dL"}, {"measurement": "CHLORIDE", "setting": "[5]", "result": 100, "unit": "MEQ/L"}, {"measurement": "CHOLESTEROL", "setting": "[5]", "result": 80, "unit": "mg/dL"}, {"measurement": "CREATININE", "setting": "[5]", "result": 0.65, "unit": "mg/dL"}, {"measurement": "GLUCOSE", "setting": "[5]", "result": 137.33, "unit": "mg/dL"}, {"measurement": "LACTATE DEHYDROGENASE", "setting": "[5]", "result": 134.33, "unit": "u/L"}, {"measurement": "LIPASE", "setting": "[5]", "result": 11.67, "unit": "u/L"}, {"measurement": "PHOSPHORUS", "setting": "[5]", "result": 9.43, "unit": "mg/dL"}, {"measurement": "POTASSIUM", "setting": "[5]", "result": 5.31, "unit": "MEQ/L"}, {"measurement": "TOTAL BILIRUBIN", "setting": "[5]", "result": 0.17, "unit": "mg/dL"}, {"measurement": "URIC ACID", "setting": "[5]", "result": 0.67, "unit": "mg/dL"}]}
